# Legend:
# 11β-HSD1 = test system: 11β-HSD1; set-up: method as in PMID 16087724; conditions: Figure 5 legend; cited from earlier work
# Recombinant human FKBP12 [1] = target: T1, Recombinant human FKBP12 (Homo sapiens, UniProt P62942); assay: Thermal denaturation fluorescence (TDF) binding assay
# T1 construct: made in house
# Procedure: Thermal denaturation fluorescence (TDF). A fluorescence based thermal denaturation assay was used to detect binding to FKBP12 essentially as described in the study of Lo [38]. Final conditions were: 50 mM ammonium acetate, pH 7.0; 10 μM FKBP12; 250 μM screening compound and 5x SYPRO orange dye (Invitrogen). […] Protein was melted over the temperature range 20 to 80°C; 0.5°C increment, 30s hold. Compounds were screened for fluorescence in the absence of protein; all samples were solvent matched and repeated in triplicate on 3 separate experiments. Apparent equilibrium dissociation constants (Kd ^app) for the interaction between the protein and ligands were calculated from the change in mid-point melting temperature of the protein (Tm) on addition of ligand and transformed to 25°C using a benchmark value for the enthalpy of ligand binding of -5 kcal∙mol^-1 [39].
# Recombinant human FKBP12 [2] = target: T1, Recombinant human FKBP12; assay: Electrospray ionization mass spectrometry (ESI-MS) binding assay; conditions: 50°C; 100 μM ligand, 5 μM FKBP12, 10% methanol, pH 6.8; read-out: ESI-MS Kd^app
# Procedure: Electrospray ionization mass spectrometry. Electrospray-ionization mass spectrometry (ESI-MS) was used to detect binding to FKBP12. Data was collected on a LCQ^TMDECA ion-trap instrument (ThermoQuest) run in the positive ion mode. The analyte was introduced by direct infusion and the following operating parameters were employed: nitrogen flow 100units, analyte flow 6 μl∙min^-1, capillary voltage 3.5 kV, cone voltage 25 V and capillary temperature 50°C. Spectrum were averaged over 300 scans (2s/ scan) and processed using the Bioworks Browser V 3.0 software package and ProMass 2.5 (ThermoScientific). The analyte solution consisted of 100 μM ligand, 5 μM FKBP12 in 10% methanol (v/v), 10 mM ammonium acetate, pH 6.8 incubated for 10 minutes at room temperature. Kd ^app for the interaction between the protein and ligand were calculated from the ratio of the intensity of the ion signal from free protein and protein in complex with ligand using the method of Tjernberg.
# [3] = target: T2, HEK-293 cells transfected with human 11β-HSD1 (Homo sapiens, UniProt P28845); assay: Scintillation proximity assay (SPA), inhibition of 11β-HSD1 reductase activity in cells; assay type: cell-based; conditions: for IC50: conversion of cortisone to cortisol, 40 nM [3H]-cortisone, 1% DMSO
# T2 construct: HEK-293 cells stably transfected with the full length human hsd11b1 gene; expressed in transfected cells; host or cells: HEK-293
# Procedure: Testing for inhibition of 11β-HSD1 reductase activity in cells. Candidate compounds were tested for inhibition of the conversion of cortisone to cortisol by 11β-HSD1 expressed in HEK-293 cells stably transfected with the full length human hsd11b1 gene as previously described. An established scintillation proximity assay (SPA) was carried out in a 96-well plate format, with appropriate controls. Experiments were set up in triplicate with 8 inhibitor concentration points per compound, spanning 3.5 orders of magnitude. Final solution conditions: 40 nM [^3H]-cortisone; 50 mM Tris pH 8.0, 50 mM NaCl; 1% DMSO. The anti-cortisol antibody was purchased from HyTest, Finland; radiometric quantification was carried out on a Perkin Elmer TopCount instrument. The percentage inhibition was determined relative to a non-inhibited control and the IC50 determined from a plot of percentage inhibition against compound concentration. Data were fitted global nonlinear regression using Kaleidagraph V4.0 (Synergy Software).
# recombinant h11β-HSD1 = target: T3, recombinant h11β-HSD1 (Homo sapiens, UniProt P28845); assay: Fluorescence assay, inhibition of 11β-HSD1 dehydrogenase activity; assay type: biochemical; conditions: conversion of cortisol to cortisone; 1 μM 11β-HSD1, 200 μM cortisol, 500 μM NADP, pH 7.7, 25°C; read-out: Fluoresc. Ki^app
# T3 construct: made in house
# Procedure: Testing for inhibition of 11β-HSD1 dehydrogenase activity. Candidate compounds were tested for inhibition of the conversion of cortisol to cortisone by recombinant h11β-HSD1. The dehydrogenation of cortisol is accompanied by the reduction of NADP^+ to NADPH; this was followed spectrophotometrically and scaled to a NADPH calibration curve. The excitation and emission wavelengths were 340 and 458 nm. (SpectraMax M5, Molecular Devices). The experimental conditions were 500 μM NADP, 1 μM 11β-HSD1, 200 μM cortisol 50 mM Tris, pH 7.7, 50 mM NaCl; 25°C. Reactions were carried out in sextuplicate. Ki ^app were derived from a fit of the rate of the reaction as a function of inhibitor concentration; Kaleidagraph, V4.0 [43]
# FKBP12 = target: FKBP12; set-up: method as in PMID 18038971; conditions: 27°C printed for Q2; cited from earlier work
# [4] = at the mid-point melting temperature Tm, 10 μM FKBP12, 250 μM compound, pH 7.0, read-out: TDF Kd^app at Tm
# [5] = value in brackets, transformed to 25°C using a benchmark enthalpy of ligand binding of -5 kcal/mol, read-out: TDF Kd^app (transformed 25°C) (converted)
# T1 sequence (P62942 whole entry): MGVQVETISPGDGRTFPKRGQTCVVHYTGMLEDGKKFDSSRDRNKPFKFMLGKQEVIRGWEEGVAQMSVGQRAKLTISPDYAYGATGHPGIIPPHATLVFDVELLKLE
# T2 sequence (P28845 whole entry): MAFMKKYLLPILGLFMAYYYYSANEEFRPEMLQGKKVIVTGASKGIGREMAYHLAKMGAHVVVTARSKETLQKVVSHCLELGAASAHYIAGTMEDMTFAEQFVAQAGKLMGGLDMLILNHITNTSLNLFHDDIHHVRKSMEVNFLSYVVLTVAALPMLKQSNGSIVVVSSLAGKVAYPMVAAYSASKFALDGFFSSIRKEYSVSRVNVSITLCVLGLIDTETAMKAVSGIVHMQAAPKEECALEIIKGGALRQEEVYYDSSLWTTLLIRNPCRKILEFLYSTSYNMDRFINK
# T3 sequence (P28845 whole entry): as above
Molecule,Kd (Recombinant human FKBP12 [1]; [4]),Kd (Recombinant human FKBP12 [1]; [5]),Kd (Recombinant human FKBP12 [2]),Ki (recombinant h11β-HSD1),other results
CC1(C)[C@@H](OC(=O)CCC(=O)O)CC[C@]2(C)[C@H]3C(=O)C=C4[C@@H]5C[C@@](C)(C(=O)O)CC[C@]5(C)CC[C@@]4(C)[C@]3(C)CC[C@@H]12 [Carbenoxolone],–,–,–,–,"inhibitor of 11β-HSD1 (potency, type not given) (11β-HSD1): 20 nM"
"O=C(CNC(=O)c1ccccc1C(=O)O)c1ccccc1 [Compound 1, 2-(phenacylcarbamoyl)benzoic acid]",548 ± 38 µM,252 µM,313 ± 30 µM,–,–
"COc1ccc(/C=C/C(=O)/C=C/c2ccc(OC)c(OC)c2)cc1OC [Compound 5, (1E,4E)-1,5-bis(3,4-dimethoxyphenyl)penta-1,4-dien-3-one]",–,–,–,142 ± 66 µM,IC50 [3]: 11.3 ± 2.6 µM
"COc1ccc2[nH]c(SCC(=O)c3ccc(O)c(O)c3)nc2c1 [Compound 7, 1-(3,4-dihydroxyphenyl)-2-[(6-methoxy-1H-benzimidazol-2-yl)sulfanyl]ethanone]",–,–,–,248 ± 73 µM,IC50 [3]: 7.9 ± 3 µM
"Cc1ccc(S(=O)(=O)CC(=O)N2CCOCC2)cc1 [Compound Q3, 2-[(4-methylbenzene)-sulfonyl]-1-(morpholin-4-yl)ethan-1-one]",–,–,–,–,Kd (FKBP12): 95 µM

# Continued, in another order:
Kd (Recombinant human FKBP12 [1]; [4]),Kd (Recombinant human FKBP12 [1]; [5]),Kd (Recombinant human FKBP12 [2]),Ki (recombinant h11β-HSD1),Molecule,other results
575 ± 70 µM,266 µM,399 ± 45 µM,–,"CC(NC(=O)c1ccccc1)C(O)c1ccccc1 (centres unmarked) [Compound 2, N-(2-hydroxy-1-methyl-2-phenyl-ethyl)benzamide]",–
568 ± 84 µM,263 µM,383 ± 52 µM,–,"O=C(NCC(O)c1ccccc1)c1cccc(Cl)c1 (centres unmarked) [Compound 3, 3-chloro-N-(2-hydroxy-2-phenyl-ethyl)benzamide]",–
648 ± 88 µM,303 µM,281 ± 42 µM,–,"CC(=O)Nc1ccccc1NC(=O)CCc1ccccc1 [Compound 4, N-(2-acetamidophenyl)-3-phenyl-propanamide]",–
–,–,–,26 ± 7 µM,"COc1ccc(C(=O)CSc2ccccn2)cc1 [Compound 8, 1-(4-methoxyphenyl)-2-(2-pyridylsulfanyl)ethanone]",IC50 [3]: 0.067 ± 0.003 µM; affinity IC50 in a cell based assay (in words) ([3]; discussion): low nanomolar
28 ± 8 µM,6 µM,197 ± 74 µM,–,"Cc1ccc(SCC(=O)N2CCOCC2)cc1 [Compound Q2, 1-morpholino-2-(p-tolylsulfanyl)ethanone, reference compound]",Kd (FKBP12): 15 µM
–,–,–,47 ± 13 µM,Dihydroxyphenyl)-2-oxoethyl]sulfanyl}-1H-tetrazol-1-yl)benzamide [Compound 6],–

# From PMC4319890, “UFSRAT: Ultra-Fast Shape Recognition with Atom Types –The Discovery of Novel Bioactive Small Molecular Scaffolds for FKBP12 and 11βHSD1” (PLoS ONE, 2015)
